Laboratory results from patent US10369153B2, “Pyrrolopyrimidine compounds and uses thereof” (HUTCHISON MEDIPHARMA LIMITED, priority 2010, dated 2019).

How the values were obtained:
[1] = test system: IL-6-induced STAT3 phosphorylation; experiment: IL-6-induced STAT3 phosphorylation in HepG2 cells; assay type: cell-based; details: Homo sapiens, IL-6 stimulation, read-out: pSTAT3 IC50
Description: For the determination of IL-6-induced STAT3 phosphorylation, HepG2 cells (SIBS) are seeded in 96 well plates at 5.4×10^3 cells per well in Serum Free DMEM media overnight and incubated in the presence or absence of various concentrations of diluted compound for 30 min at 37° C., 5% CO2. Cells were stimulated by adding 10 ng/ml human recombinant IL-6 to each well for 15 minutes at 37° C., 5% CO2. Cells are then fixed in 2% paraformaldehyde for 45 minutes at room temperature and incubated in ice-cold methanol for 30 minutes. After washing in PBS, cells are incubated with rabbit anti-phospho-STAT3 (Y705) (Cell Signaling Technologies, 1:1000 in antibody dilution solution) primary antibody overnight at 4° C. Goat anti-rabbit IgG Alexa 488 (Invitrogen, 1:1,000 dilution in PBS) secondary antibody is added for 90 minutes prior to PBS washes. Cells are counted following incubation in a 7.5 uM propidium iodide, 100 μg/ml RNaseA, PBS solution for 60 minutes in the dark. Plates are read on an Acumen X3 instrument (TPP Labtech).
(§1) Percent inhibition is calculated using the following formula: Inhibition (%)=100−((inhibitor treatment−cell)/(stimulator−cell))×100 […]

[2] = biological target: Recombinant human JAK1 catalytic domain (Homo sapiens (Human), UniProt P23458); experiment: JAK1 kinase assay (Z'-LYTE, Tyr 6 Peptide); assay type: biochemical; details: 0.3 uM concentration, read-out: inhibition percentage (IR %)
Description: JAK1/2/3 kinase assay are performed in vitro using Kit-Tyr 6 Peptide (Invitrogen, Cat. No. PV4122). TYK2 kinase assay are performed in vitro using Z′-LYTE™ Kinase Assay Kit-Tyr 3 Peptide (Invitrogen, Cat. No. PV3192). […] All compounds are initially tested at 8 different concentrations (1 μM down to 0.0003 μM) using a 1:3 serial dilution scheme.

[3] = test system: IL-3-induced STAT5 phosphorylation; experiment: IL-3-induced STAT5 phosphorylation in TF-1 cells; assay type: cell-based; details: Homo sapiens, IL-3 stimulation, read-out: pSTAT5 IC50
Description: For the determination of IL-3-induced STAT5 phosphorylation, TF-1 cells (ATCC) are plated in 96 well plates at 1×10^4 cells per well in 10% FBS RPMI-1640 media at 37° C., 5% CO2 for 3 hours. Cells were incubated in the presence or absence of various concentrations of diluted compound for 30 min at 37° C., 5% CO2. Cells were stimulated by adding 10 ng/ml human recombinant IL-3 to each well for 30 minutes at 37° C., 5% CO2. Cells are then fixed in 2% paraformaldehyde for 45 minutes at room temperature and incubated in ice-cold methanol for 30 minutes. After washing in PBS, cells are incubated with rabbit anti-phospho-STAT5 (Y694) (Cell Signaling Technologies, 1:1000 in antibody dilution solution) primary antibody overnight at 4° C. Goat anti-rabbit IgG Alexa 488 (Invitrogen, 1:1,000 dilution in PBS) secondary antibody is added for 90 minutes prior to PBS washes. Cells are counted following incubation in a 7.5 uM propidium iodide, 100 μg/ml RNaseA, PBS solution for 60 minutes in the dark. Plates are read on an Acumen X3 instrument (TPP Labtech).
as §1

Recombinant human JAK1 catalytic domain, sequence (P23458 875-1153): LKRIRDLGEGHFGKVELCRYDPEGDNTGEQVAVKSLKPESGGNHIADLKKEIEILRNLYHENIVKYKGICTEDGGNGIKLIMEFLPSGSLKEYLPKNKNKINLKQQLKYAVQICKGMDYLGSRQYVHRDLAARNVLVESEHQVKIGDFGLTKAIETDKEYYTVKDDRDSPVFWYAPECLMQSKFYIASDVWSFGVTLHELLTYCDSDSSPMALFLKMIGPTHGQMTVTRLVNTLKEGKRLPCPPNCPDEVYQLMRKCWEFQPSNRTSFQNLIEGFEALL

IC50 [1] [µM] | inhibition at 0.3 µM [2] [%] | IC50 [3] [µM] | SMILES
0.05 | 50 to 100 | 7.55 | CN(c1ccc(C(=O)Nc2nccs2)cn1)[C@@H]1CCN(c2ncnc3[nH]ccc23)C1 [Compound 199]
 | 50 to 100 |  | CN(c1ccc(C(=O)N[C@@H](CO)c2ccccc2)cn1)[C@@H]1CCN(c2ncnc3[nH]ccc23)C1 [Compound 176]
 | 20 to 50 |  | CN(C(=O)c1ccc(N(C)[C@@H]2CCN(c3ncnc4[nH]ccc34)C2)nc1)[C@@H](CO)c1ccccc1 [Compound 200]
